What was measured:
Assay type in all cases: cell-based
Aspergillus flavus = test: Agar plate disc-diffusion, antifungal activity
Procedure: (§1) The agar plate disc-diffusion method was applied. […] The discs were then placed onto the surface of agar plates (nutrient agar for bacteria and Sabouraud's dextrose agar for fungi) seeded with the test organism. Each plate contained 15 mL of the agar medium, previously seeded with 0.2 mL of the broth culture of each organism pregrown for 18 hours. The plates were incubated at 37 °C for 48 h, and 72 h for fungi. The inhibition zones were measured in mm. Discs impregnated with DMSO were used as a control, and its inhibition zone was subtracted from the tested compound actual inhibition zone.

[1] = system: Chrysosporium keratinophilum; test: Agar plate disc-diffusion, antifungal activity
Procedure: as §1

Escherichia coli = test: Agar plate disc-diffusion, antibacterial activity
Procedure: as §1

Staphylococcus aureus = test: Agar plate disc-diffusion, antibacterial activity
Procedure: as §1

Bacillus cereus = test: Agar plate disc-diffusion, antibacterial activity
Procedure: as §1

Pseudomonas aeruginosa = test: Agar plate disc-diffusion, antibacterial activity
Procedure: as §1

different microbes = test: Antimicrobial activity, overall statement; conditions: against different microbes (bacteria and fungi of Tables 1 and 2)
Procedure: The agar plate disc-diffusion method was applied. Sterilized filter papers (6 mm in diameter) were wetted with 10 μL of a solution of 4,5-bis(4-chlorophenyl)-2-phenyl-1H-imidazole (IV) to be tested, containing 10 mg/mL in DMSO, and the discs were allowed to air dry. The discs were then placed onto the surface of agar plates (nutrient agar for bacteria and Sabouraud's dextrose agar for fungi) seeded with the test organism. Each plate contained 15 mL of the agar medium, previously seeded with 0.2 mL of the broth culture of each organism pregrown for 18 hours. The plates were incubated at 37 °C for 48 h, and 72 h for fungi. The inhibition zones were measured in mm. Discs impregnated with DMSO were used as a control, and its inhibition zone was subtracted from the tested compound actual inhibition zone.

[2] = A = concentration of comp. = 10,000 μL
[3] = B = concentration of comp. = 30,000 μL
[4] = C = concentration of comp. = 50,000 μL

## Clc1ccc(-c2nc(-c3ccccc3)[nH]c2-c2ccc(Cl)cc2)cc1 [IV, 4,5-bis(4-chlorophenyl)-2-phenyl-1H-imidazole]
Aspergillus flavus; [2]
  inhibition zone: 22 mm
Aspergillus flavus; [3]
  inhibition zone: 25 mm
Aspergillus flavus; [4]
  inhibition zone: 32 mm
[1]; [2]
  inhibition zone: 26 mm
[1]; [3]
  inhibition zone: 28 mm
[1]; [4]
  inhibition zone: 46 mm
Escherichia coli; [2]
  inhibition zone: 27 mm
Escherichia coli; [3]
  inhibition zone: 34 mm
Escherichia coli; [4]
  inhibition zone: 52 mm
Staphylococcus aureus; [2]
  inhibition zone: 20 mm
Staphylococcus aureus; [3]
  inhibition zone: 24 mm
Staphylococcus aureus; [4]
  inhibition zone: 33 mm
Bacillus cereus; [2]
  inhibition zone: 22 mm
Bacillus cereus; [3]
  inhibition zone: 24 mm
Bacillus cereus; [4]
  inhibition zone: 36 mm
Pseudomonas aeruginosa; [2]
  inhibition zone: 25 mm
Pseudomonas aeruginosa; [3]
  inhibition zone: 28 mm
Pseudomonas aeruginosa; [4]
  inhibition zone: 46 mm
Different microbes
  antimicrobial activities: excellent antimicrobial activities

Reference: patent US11999701B1, “4,5-bis(4-chlorophenyl)-2-phenyl-1H-imidazol-1-yl as an antimicrobial compound” (KING FAISAL UNIVERSITY, priority 2023, dated 2024)
